Test results published in article PMC9351465, “Mechanism-based heparanase inhibitors reduce cancer metastasis in vivo” (Proceedings of the National Academy of Sciences of the …, 2022).

What was measured:
4T1 breast cancer cells = assay: 4T1 murine mammary carcinoma lung metastasis model (luciferase imaging); type: in vivo, mouse; settings: Balb/c mice, i.p. 300 nmol 2 or 150 μg SST0001, then i.v. 4T1-Luc cells with 2 nmol 2 or 10 μg SST0001; 14 d
Method: Since HPSE drives metastasis in multiple cancer types, we tested 2 against another metastasis model—4T1 murine mammary carcinoma, which also migrates to the lungs. Here, we were aided by a constitutive luciferase expressing 4T1 line, enabling real-time tracking of cancer growth by chemiluminescent imaging. Similar to the B16 model, mice were dosed i.p. with 300 nmol of 2 or 150 μg SST0001, followed by i.v. injection of 4T1-Luc cells alongside 2 nmol 2 or 10 μg SST0001.
B16-BL6 melanoma cells/mouse in a volume of 100 µL, alongside 20 µM 2 or 10 µg SST0001.
Mice were sacrificed after 14 days and the lungs were dissected, photographed and evaluated for the number of metastatic foci/lung. Plots and statistical analyses were carried out in Prism […]
(§1) Bioluminescence imaging of lung metastases produced by luciferase-expressing 4T1 cells was carried out using a highly sensitive, cooled charge-coupled device camera assembled in a specimen box (IVIS; Xenogen Corp, Hopkinton, MA). […] The tumor burden was quantified using Living Image software (Xenogen) (12, 13). […]
(§2) CAG myeloma - Luciferase-labeled CAG human myeloma cells (3x106) were injected into the tail vein of NOD/SCID mice. […] Tumor burden was quantified using Living Image software. […]

B16 melanoma cells = assay: B16 murine melanoma experimental lung metastasis model; type: in vivo, mouse; settings: C57BL/J6 mice, i.p. 300 nmol 2 or 150 μg SST0001, then i.v. B16 cells with 2 nmol 2 or 10 μg SST0001; after 14 d; vs PBS
Method: We initially tested a B16 murine melanoma metastasis model, measuring the formation of metastatic lung tumors by B16 melanoma cells after intravenous (i.v.) injection. The efficacy of covalent HPSE inhibition by 2 was compared to SST0001 (Roneparstat), a current best-in-class HPSE inhibitor and clinical trial candidate (SI Appendix, Fig. S1). Mice were inoculated intraperitoneally (i.p.) with 300 nmol of 2 (∼15 μmol/kg for a 20 g mouse), or 150 μg SST0001, followed by an i.v. injection of B16 cells alongside 2 nmol 2 or 10 μg SST0001.
For HS-degradation assays, ECM coated dishes were incubated with 200 ng recombinant HPSE in 1 mL reaction mixture (10 mM buffer Phosphate-Citrate pH 6.0, 50 mM NaCl, 1 mM DTT, 1 mM CaCl2) containing HPSE inhibitors or DMSO control. […] The Sepharose 6B column was eluted with PBS, and 35S radioactivity of 0.2 mL fractions quantitated using a liquid scintillation analyzer (Packard BioScience) (11). […]
(§3) Cells in the upper chamber were separated by Matrigel from a lower chamber containing 600 µL DMEM, supplemented with 10% FBS. […] 10 randomly selected microscopic fields were recorded, and cell invasion calculated using ImageJ, by quantitating the percentage of the field stained by crystal violet. […]
(§4) Mice were sacrificed after 14 days and the lungs were dissected, photographed and evaluated for the number of metastatic foci/lung. […]

CAG myeloma cancer cells = assay: CAG myeloma xenograft bone metastasis model (luciferase imaging); type: in vivo, mouse; settings: NOD/SCID mice
Description: Finally, we examined a CAG myeloma xenograft model, which faithfully recapitulates the invasion of multiple myeloma to the bone marrow. We compared the efficacy of 2 to bortezomib, a proteasome inhibitor and standard treatment for multiple myeloma and lymphomas, and also explored the possibility of synergistic proteasomal and HPSE inhibitor treatment. In contrast to the single initial dose regimens used for B16 and 4T1, a continuous dosing regimen was used in this assay to gauge the efficacy of 2 over longer treatment periods. Following injection of luciferase expressing CAG cells, mice were treated with a course of 2 (300 nmol/day i.p.), bortezomib (0.5 mg/kg twice weekly i.p.), or a combination of both compounds. […]
as §4, §1, §2

U87 glioblastoma cells = assay: Matrigel invasion assay; type: cell-based, human; settings: 20 µM inhibitor, 4 h
Method: Preliminary in cellulo evaluations of our inhibitors’ effects on cancer aggression were conducted using a Matrigel invasion assay, which measures the ability of cells to migrate through transwell inserts coated with the ECM material Matrigel. Matrigel invasion by cells requires a broad complement of proteases and glycosidases, thereby mimicking some aspects of metastasis in vivo ([51]).
For HS-degradation assays, ECM coated dishes were incubated with 200 ng recombinant HPSE in 1 mL reaction mixture (10 mM buffer Phosphate-Citrate pH 6.0, 50 mM NaCl, 1 mM DTT, 1 mM CaCl2) containing HPSE inhibitors or DMSO control. Plates were incubated at 37°C for 5 h, then assay medium collected and applied to a 0.9×30 cm Sepharose 6B size exclusion column. The Sepharose 6B column was eluted with PBS, and 35S radioactivity of 0.2 mL fractions quantitated using a liquid scintillation analyzer (Packard BioScience) (11). […]
as §3

## CC(=O)N[C@H]1[C@@H](O[C@H]2[C@H](O)[C@@H](O)[C@@H]3O[C@@H]3[C@@H]2C(=O)O)O[C@H](CO)[C@@H](O)[C@@H]1O [compound 2]
4T1 breast cancer cells
  lung metastases (bioluminescent flux): marked reduction in lung metastases
B16 melanoma cells
  lung metastases (metastatic foci/lung): marked reduction in lung growths
CAG myeloma cancer cells; 2 300 nmol/day i.p., bortezomib 0.5 mg/kg twice weekly i.p., imaging over time
  metastatic burden (bioluminescent flux): moderate reduction in metastatic burden
CAG myeloma cancer cells; continuous dosing, 33 d
  antimetastatic efficacy at 33 d timepoint: somewhat reduced efficacy following prolonged treatment
U87 glioblastoma cells
  Matrigel invasion (% field stained): significantly reduced Matrigel invasion
